For data set [1], the system named is Pf-GHA. Nature of the data set: Pf-GHA growth inhibition, colorimetric NBT-based lactate dehydrogenase assay. It is filed as cell-based. The settings on record: Plasmodium falciparum, read-out: IC50 against Pf-GHA. On the procedure:
The IC50 values against Pf-GHA and MRC-5 were determined by using the less sensitive colorimetric NBT-based lactate dehydrogenase assay (Makler et al, Am. J. Trop. Med. Hyg. 1993, 48 (6), 739-741) based on redox-reactions.
In Vitro Antiparasitic Bioassays. The strain is maintained in RPMI-1640 medium supplemented with 0.37 mM hypoxanthine, 25 mM HEPES, 25 mM NaHCO3, and 10% O^+ human serum together with 2-4% washed human O^+ erythrocytes. All cultures and assays are conducted under an atmosphere of 4% CO2, 3% O2 and 93% N2. Assays are performed in 96-well microtiter plates, each well containing 10 μL of the watery compound dilutions together with 190 μL of the malaria parasite inoculum (1% parasitaemia, 2% HCT). After 72 h incubation, plates are frozen and stored at −20° C. After thawing, 20 μL of each well is transferred into another plate together with 100 μL Malstat reagent and 20 μL of 1/1 mixture of PES (phenazine ethosulfate, 0.1 mg/mL) and NBT (Nitro Blue Tetrazolium Grade III, 2 mg/mL). Change in colour is measured spectrophotometrically at 655 nm. The results are expressed as % reduction in parasitaemia compared to control wells. Compounds are treated at 5 concentrations (64-16-4-1 and 0.25 μM or μg/mL).

For data set [2], the system named is P. falciparum multidrug-resistant strain Dd2. Nature of the data set: Dd2 growth inhibition, 3H-hypoxanthine assay. In kind it is cell-based, Plasmodium falciparum. Conditions: for IC50: Plasmodium falciparum, DD2, 48 h exposure then 24 h hypoxanthine, read-out: IC50 against Dd2. On the procedure: The IC50 was tested by standard in vitro antiproliferation assays (Desjardins et al, 1979 Antimicrob. Agents Chemother 1979, 16, 710-718). Infected erythrocytes in ring stage (0.5% parasitemia, 2.5% hematocrit) in 96-well plates were exposed to the compounds for 48 h and then to radioactive hypoxanthine for 24 h. The amount of radioactivity in precipitable material served as an index of cell proliferation.

The structures appear in SMILES notation. Read-outs that look alike come from different tables or passages of the source.

For orientation: melting point means the temperature, or range, at which the solid turns liquid. As a reminder, the IC50 is the point on the concentration scale where inhibition reaches its midpoint.

`CC1=C(C(=O)c2ccc(C#N)cc2)C(=O)C2C=CC=CC2C1=O` (stereo not shown) [P_TM46, 2-Methyl-3-(4-cyano-benzoyl)-4a,8a-dihydro-[1,4]naphthoquinone] showed a melting point of 185 to 186 °C. The IC50 in data set [1] (72 h incubation) is less than 5000 nM.
For the compound `COc1ccccc1CC1=C(C)C(=O)C2C=CC=CC2C1=O` (stereo not shown) [P_TM32, 2-Methyl-3-(2-methoxy-benzyl)-4a,8a-dihydro-[1,4]naphthoquinone], the melting point lay within 117 to 118 °C. Also, in data set [2], the IC50 is less than 100 nM.
Compound `CC1=C(Cc2ccc(C#N)cc2)C(=O)C2C=CC=CC2C1=O` (stereo not shown) [P_TM41, 2-Methyl-3-(4-cyano-benzyl)-4a,8a-dihydro-[1,4]naphthoquinone] registered a melting point of 159 to 160 °C. In addition, the IC50 in data set [2] is less than 100 nM. Also, the IC50 in data set [1] (72 h incubation) was less than 5000 nM.
On the same counts, the results for `COc1cc(CC2=C(C)C(=O)C3C=CC=CC3C2=O)cc(OC)c1` (stereo not shown) [P_TM58, 2-(3,5-Dimethoxy-benzyl)-3-methyl-4a,8a-dihydro-[1,4]naphthoquinone] are 127 to 128 °C, less than 100 nM and less than 5000 nM.
On to `CC1=C(C(=O)c2ccc(Cl)cc2)C(=O)C2C=CC=CC2C1=O` (stereo not shown) [P_TM38, 2-Methyl-3-(4-chloro-benzoyl)-4a,8a-dihydro-[1,4]naphthoquinone], for which the IC50 in data set [1] (72 h incubation) was less than 5000 nM.
`CC1=C(C(=O)c2ccc(C(C)(C)C)cc2)C(=O)C2C=CC=CC2C1=O` (stereo not shown) [P_TM48, 2-Methyl-3-(4-tertbutyl-benzoyl)-4a,8a-dihydro-[1,4]naphthoquinone] came in with a melting point of 64 to 65 °C.
Take `COc1ccc(CC2=C(C)C(=O)C3C=CC=CC3C2=O)cc1OC` (stereo not shown) [P_TM54, 2-(3,4-Dimethoxy-benzyl)-3-methyl-4a,8a-dihydro-[1,4]naphthoquinone]: the melting point is 102 to 103 °C.
As to `C[C@H]1[C@H](OC(=O)CCC(=O)O)O[C@@H]2O[C@@]3(C)CC[C@H]4[C@H](C)CC[C@@H]1[C@@]24OO3` [Artesunate, reference compound], the IC50 in data set [1] (72 h) was found to be 5 nM.
As for `COc1ccc(CC2=C(C)C(=O)C3C=CC=CC3C2=O)cc1` (stereo not shown) [P_TM31, 2-Methyl-3-(4-methoxy-benzyl)-4a,8a-dihydro-[1,4]naphthoquinone], the melting point fell in the range of 112 to 113 °C. In data set [2], the IC50 was less than 100 nM.
Turning to `CC1=C(Cc2ccc(C(=O)NCCC#N)cc2)C(=O)C2C=CC=CC2C1=O` (stereo not shown) [P_TM53, N-(2-Cyano-ethyl)-4-(3-methyl-1,4-dioxo-1,4,4a,8a-tetrahydronaphthalen-2-ylmethyl)-benzamide], the melting point was 131 to 132 °C.
Still for that read-out and setting: the result for `O=C1C(Cc2ccc(Br)cc2)=C(C(F)F)C(=O)c2ccccc21` [P_TM101, 2-(4-Bromo-benzyl)-3-difluoromethyl-[1,4]naphthoquinone] reads 103 to 104 °C; that for `COc1ccc(CC2=C(C)C(=O)C3C=CC=CC3C2=O)c(OC)c1` (stereo not shown) [P_TM56, 2-(2,4-Dimethoxy-benzyl)-3-methyl-4a,8a-dihydro-[1,4]naphthoquinone], 103 to 105 °C.
The compound `CC1=C(Cc2ccc(C(C)(C)C)cc2)C(=O)c2c(O)cccc2C1=O` [P_TM81, 3-(4-tert-Butyl-benzyl)-5-hydroxy-2-methyl-[1,4]naphthoquinone] yielded a melting point of 112 to 113 °C. Also, the IC50 in data set [1] (72 h incubation) is less than 5000 nM.
On to `CC1=C(C(=O)c2ccc(C(=O)O)cc2)C(=O)C2C=CC=CC2C1=O` (stereo not shown) [P_TM22, 4-(3-Methyl-1,4-dioxo-1,4,4a,8a-tetrahydro-naphthalene-2-carbonyl)-benzoic acid], for which the melting point was 201 °C (dec.).
On the same count and under the same terms, the result for `O=C1C=C(C(F)F)C(=O)c2ccccc21` [HB49, 2-Difluoromethyl-1,4-naphthoquinone] reads 74 °C.
As for `CC1=C(Cc2ccc(-c3ccc(C(C)(C)C)cc3)cc2)C(=O)c2ccccc2C1=O` [P_TM66, 2-(4′-tert-Butyl-biphenyl-4-ylmethyl)-3-methyl-[1,4]naphthoquinone], the melting point lay in the range of 112 to 114 °C. Besides, in data set [1] (72 h incubation), the IC50 is less than 5000 nM.
Regarding `CC1=C(Cc2ccc(NC(=O)OC(C)(C)C)cc2)C(=O)C2C=CC=CC2C1=O` (stereo not shown) [P_TM45, [4-(3-Methyl-1,4-dioxo-1,4,4a,8a-tetrahydro-naphthalen-2-ylmethyl)-phenyl]-carbamic acid tert-butyl ester], the melting point fell in the range of 148 to 149 °C.
On to `CCCCC(C1=C(C)C(=O)c2ccccc2C1=O)c1ccc(-c2ccc([N+](=O)[O-])cc2)cc1` (stereo not shown) [P_TM67, 2-(4′-nitro-Butyl-biphenyl-4-ylmethyl)-3-methyl-[1,4]naphthoquinone], for which the IC50 in data set [1] (72 h incubation) was less than 5000 nM.
In turn, `CC1=C(Cc2ccc(Cl)cc2)C(=O)C2C=CC=CC2C1=O` (stereo not shown) [P_TM30, 2-Methyl-3-(4-chloro-benzyl)-4a,8a-dihydro-[1,4]naphthoquinone] gave a melting point of 134 to 135 °C. Moreover, the IC50 in data set [2] is less than 100 nM. The IC50 in data set [1] (72 h incubation) is less than 5000 nM.
As for `COc1ccccc1C(=O)C1=C(C)C(=O)C2C=CC=CC2C1=O` (stereo not shown) [P_TM35, 2-Methyl-3-(2-methoxy-benzoyl)-4a,8a-dihydro-[1,4]naphthoquinone], the melting point fell in the range of 146 to 147 °C.
Same read-out and setting: the result for `COc1c(C)c(Cc2ccc(Cl)cc2)c(OC)c2ccccc12` [P_TM75, 2-(4-Chloro-benzyl)-1,4-dimethoxy-3-methyl-naphthalene] reads 101 to 102 °C.
Still for that read-out and setting: the result for `COC(=O)c1ccc(C(=O)C2=C(C)C(=O)c3ccccc3C2=O)cc1` [P_TM28, 4-(3-Methyl-1,4-dioxo-1,4-dihydro-naphthalene-2-carbonyl)-benzoic acid methyl ester] reads 162 °C; that for `CC1=C(Cc2ccc(F)cc2)C(=O)C2C=CC=CC2C1=O` (stereo not shown) [P_TM26, 2-Methyl-3-(4-fluoro-benzyl)-4a,8a-dihydro-[1,4]naphthoquinone], 118 to 119 °C; that for `COc1c(C)c(Cc2ccc(N3CCN(Cc4ccc(C(C)(C)C)cc4)CC3)cc2)c(OC)c2ccccc12` [P_TM78, 1-(4-tert-Butyl-benzyl)-4-[4-(1,4-dimethoxy-3-methyl-naphthalen-2-ylmethyl)-phenyl]piperazine], 63 to 65 °C.
The compound `CC1=C(Cc2ccc(Br)cc2)C(=O)C2C(O)=CC=CC2C1=O` (stereo not shown) [P_TM42, 3-(4-Bromo-benzyl)-5-hydroxy-2-methyl-4a,8a-dihydro-[1,4]naphthoquinone] returned a melting point of 163 to 164 °C. In addition, the half-inhibitory concentration (IC50) in data set [1] (72 h incubation) was less than 5000 nM.
`CC1=C(Cc2ccc(C(=O)O)cc2)C(=O)C2C=CC=CC2C1=O` (stereo not shown) [P_TM50, 4-(3-Methyl-1,4-dioxo-1,4,4a,8a-tetrahydro-naphthalen-2-ylmethyl)-benzoic acid] showed a melting point of 206 to 208 °C.
On to `CC1=C(Cc2ccc(N)cc2)C(=O)C2C=CC=CC2C1=O` (stereo not shown) [P_TM103, 2-Methyl-3-(4-amino-benzyl)-4a,8a-dihydro-[1,4]naphthoquinone], for which the melting point lay in the range of 152 to 153 °C.
Still for that read-out and setting: to `CC1=C(Cc2cccc(Br)c2)C(=O)C2C=CC=CC2C1=O` (stereo not shown) [P_TM99, 2-Methyl-3-(3-bromo-benzyl)-4a,8a-dihydro-[1,4]naphthoquinone] belongs 108 to 109 °C.
`O=C1C(O)=C([C@H]2CC[C@H](c3ccc(Cl)cc3)CC2)C(=O)c2ccccc21` [atovaquone, reference compound]: the IC50 in data set [2] is less than 0.1 nM; in data set [1] (72 h incubation), 310 nM.
`COc1c(C)c(C(O)c2ccc(Br)cc2)c(OC)c2ccccc12` (stereo not shown) [P_TM7, (4-Bromo-phenyl)-(1,4-dimethoxy-3-methyl-naphthalen-2-yl)-methanol] displayed a melting point of 67 to 68 °C.
`CC1=C(Cc2ccccc2)C(=O)C2C=CC=CC2C1=O` (stereo not shown) [P_TM62, 2-Methyl-3-benzyl-4a,8a-dihydro-[1,4]naphthoquinone] registered a melting point of 103 to 104 °C. Besides, the “antimalarial activity against Dd2” value in data set [2] (compared with substituted benzyl derivatives) is on record as “less active”.
For `COc1ccc(OC)c(CC2=C(C)C(=O)C3C=CC=CC3C2=O)c1` (stereo not shown) [P_TM60, 2-(2,5-Dimethoxy-benzyl)-3-methyl-4a,8a-dihydro-[1,4]naphthoquinone], the melting point was 140 to 142 °C. In data set [2], the IC50 is less than 100 nM.
`CC1=C(Cc2ccc(C(C)C)cc2)C(=O)C2C=CC=CC2C1=O` (stereo not shown) [P_TM100, 2-Methyl-3-(4-isopropyl-benzyl)-4a,8a-dihydro-[1,4]naphthoquinone] yielded a melting point of 64 to 65 °C.
Still for that read-out and setting: the result for `COc1cccc(CC2=C(C)C(=O)c3ccccc3C2=O)c1` [P_TM96, 2-(3-Methoxy-benzyl)-3-methyl-[1,4]naphthoquinone] reads 87 to 88 °C.

For the origin of these results see patent US9090549B2, “1,4-naphthoquinones derivatives and therapeutic use thereof” (CENTRE NATIONAL DE LA RECHERCHE SCIENTIFIQUE (C.N.R.S.), priority 2008, dated 2015).
